From patent publication US10005767B2, “Compositions and methods for inhibition of the JAK pathway” (Rigel Pharmaceuticals, Inc., priority 2009, dated 2018)

tested on: human primary T-cells, IL-2 stimulated proliferation (JAK-1 and JAK-3 dependent; reported as JAK3 activity); assay: Human primary T-cell proliferation stimulated by IL-2 (Example 3); assay type: cell-based; settings: Homo sapiens, T-cell, tested under conditions described in Example 3 (IL-2 stimulated human primary T-cell proliferation); read-out: ability to inhibit JAK3 activity, IC50 range (Table V)
How it was run: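 Peripheral-blood human T-cells pre-activated via TCR/CD28, IL-2-starved overnight, then cultured 72 h at 37 °C with compound in Yssel's medium containing IL-2 (80 U/mL in cell suspension). Proliferation read as viable-cell ATP by CellTiter-Glo luminescence; reduction versus control taken as JAK pathway inhibition.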

**Q.** With `Cc1cnc(Nc2ccc(N3CCC(NC(=O)NC(C)(C)C)C3)nc2)nc1Nc1ccc2oc(=O)[nH]c2c1` (centres unmarked) [II-97, 1-tert-butyl-3-(1-(5-(5-methyl-4-(2-oxo-2,3-dihydrobenzo[d]oxazol-5-ylamino)pyrimidin-2-ylamino)pyridin-2-yl)pyrrolidin-3-yl)urea] as the compound, how does the IC50 read?
**A.** < 0.5 µM

**Q.** How did the IC50 turn out when `Cc1ccc(Nc2ncc(C)c(Nc3ccc4oc(=O)[nH]c4c3)n2)c(F)c1` [Compound I-514, 5-(2-(2-fluoro-4-methylphenylamino)-5-methylpyrimidin-4-ylamino)benzo[d]oxazol-2(3H)-one] was run?
**A.** < 0.5 µM

**Q.** With `COc1ccc(C(F)(F)F)cc1Nc1ncc(C)c(Nc2ccc3oc(=O)[nH]c3c2)n1` [Compound I-498, 5-[2-(2-Methoxy-5-trifluoromethyl-phenylamino)-5-methyl-pyrimidin-4-ylamino]-3H-benzooxazol-2-one] as the compound, how does the IC50 read?
**A.** 0.5 to 5 µM

**Q.** How did the IC50 turn out when `Cc1cnc(Nc2ccc(N3CCNCC3)nc2)nc1Nc1ccc2oc(=O)[nH]c2c1` [II-10, N4-(benzo[d]oxazol-2(3H)-on-5-yl)-N2-(6-(piperazin-1-yl)pyridin-3-yl)-5-methylpyrimidine-2,4-diamine] was run?
**A.** < 0.5 µM

**Q.** Which IC50 does the source give for `CCN1Cc2ccc(Nc3ncc(C)c(Nc4ccc5oc(=O)[nH]c5c4)n3)cc2C1` [III-5, N4-(benzo[d]oxazol-2(3H)-on-5-yl)-N2-(2-ethylisoindolin-5-yl)-5-methylpyrimidine-2,4-diamine] here?
**A.** < 0.5 µM

**Q.** With `COc1cc(Nc2ncc(F)c(Nc3ccc4oc(=O)[nH]c4c3)n2)cc(OC)c1OC` [Compound I-115, N4-(benzoxazolin-2-on-5-yl)-N2-(3,4,5-trimethoxyphenyl)-5-fluoropyrimidine-2,4-diamine] as the compound, how does the IC50 read?
**A.** < 0.5 µM

**Q.** For `Cc1cnc(Nc2cc(F)c(F)c(F)c2F)nc1Nc1ccc2oc(=O)[nH]c2c1` [Compound I-477, 5-[5-Methyl-2-(2,3,4,5-tetrafluoro-phenylamino)-pyrimidin-4-ylamino]-3H-benzooxazol-2-one], which IC50 is on record?
**A.** 0.5 to 5 µM

**Q.** How did the IC50 turn out when `Cc1cnc(Nc2ccc(C(N)=O)c(N3CCCC3)c2)nc1Nc1ccc2oc(=O)[nH]c2c1` [Compound I-136, 4-[5-Methyl-4-(2-oxo-2,3-dihydro-benzooxazol-5-ylamino)-pyrimidin-2-ylamino]-2-pyrrolidin-1-yl-benzamide] was run?
**A.** < 0.5 µM

**Q.** How did the IC50 turn out when `Cc1cnc(Nc2ccc3ccccc3c2)nc1Nc1ccc2oc(=O)[nH]c2c1` [IV-54, 5-[5-Methyl-2-(naphthalen-2-ylamino)-pyrimidin-4-ylamino]-3H-benzooxazol-2-one] was run?
**A.** < 0.5 µM

**Q.** With `Cc1cnc(Nc2ccc3c(cnn3C)c2)nc1Nc1ccc2oc(=O)[nH]c2c1` [IV-42, 5-methyl-N2-(1-methylindazol-5-yl)-N4-(2-oxo-2,3-dihydro-1,3-benzoxazol-5-yl)-2,4-pyrimidinediamine] as the compound, how does the IC50 read?
**A.** < 0.5 µM

**Q.** `Cc1cnc(Nc2cc(C)c(F)c(C)c2)nc1Nc1cc(C)c2oc(=O)[nH]c2c1` [Compound I-476, 5-(2-(4-fluoro-3,5-dimethylphenylamino)-5-methylpyrimidin-4-ylamino)-7-methylbenzo[d]oxazol-2(3H)-one] was tested. Which IC50 did it give?
**A.** > 10 µM

**Q.** How did the IC50 turn out when `Cc1cnc(Nc2ccc(C=O)cc2)nc1Nc1ccc2oc(=O)[nH]c2c1` [Compound I-4, N4-(benzo[d]oxazol-2(3H)-on-5-yl)-N2-(4-formylphenyl)-5-methylpyrimidine-2,4-diamine] was run?
**A.** < 0.5 µM

**Q.** `Cc1cnc(Nc2ccc(OCC3CCC3)cc2)nc1Nc1ccc2oc(=O)[nH]c2c1` [Compound I-195, 5-[2-(4-Cyclobutylmethoxy-phenylamino)-5-methyl-pyrimidin-4-ylamino]-3H-benzooxazol-2-one] was tested. Which IC50 did it give?
**A.** < 0.5 µM

**Q.** How did the IC50 turn out when `Cc1cnc(Nc2cccc(C(C)NCc3ccccc3)c2)nc1Nc1ccc2oc(=O)[nH]c2c1` (centres unmarked) [Compound I-213, 5-(2-(3-(1-(benzylamino)ethyl)phenylamino)-5-methylpyrimidin-4-ylamino)benzo[d]oxazol-2(3H)-one] was run?
**A.** < 0.5 µM

**Q.** For `Cc1cnc(Nc2cccc(C(F)(F)F)c2C)nc1Nc1ccc2oc(=O)[nH]c2c1` [Compound I-518, 5-[5-Methyl-2-(2-methyl-3-trifluoromethyl-phenylamino)-pyrimidin-4-ylamino]-3H-benzooxazol-2-one], which IC50 is on record?
**A.** < 0.5 µM

**Q.** `Cc1cnc(Nc2ccc(OCC3CCCCC3)c(C(F)(F)F)c2)nc1Nc1ccc2oc(=O)[nH]c2c1` [Compound I-179, 5-[2-(4-Cyclohexylmethoxy-3-trifluoromethyl-phenylamino)-5-methyl-pyrimidin-4-ylamino]-3H-benzooxazol-2-one] was tested. Which IC50 did it give?
**A.** > 10 µM

**Q.** With `Cc1cnc(Nc2ccc(N(C)C)nc2)nc1Nc1ccc2oc(=O)[nH]c2c1` [II-1, N4-(benzo[d]oxazol-2(3H)-on-5-yl)-N2-(6-dimethylaminopyridin-3-yl)-5-methylpyrimidine-2,4-diamine] as the compound, how does the IC50 read?
**A.** < 0.5 µM

**Q.** For `Cc1cnc(Nc2ccc(F)c(-c3cccnc3)c2)nc1Nc1ccc2oc(=O)[nH]c2c1` [Compound I-472, 5-(2-(4-fluoro-3-(pyridin-3-yl)phenylamino)-5-methylpyrimidin-4-ylamino)benzo[d]oxazol-2(3H)-one], which IC50 is on record?
**A.** < 0.5 µM

same assay, conditions: tested under conditions described in Example 3 (IL-2 stimulated human primary T-cell proliferation); read-out: ability to inhibit JAK3 activity, IC50 range (Table V)

**Q.** With `Cc1cc(Nc2ncc(C)c(Nc3ccc4oc(=O)[nH]c4c3)n2)ccc1OC(C)(C)C(N)=O` [Compound I-391, N2-[4-(1-aminocarbonyl-1-methyl)ethoxy-3-methyl]phenyl-5-methyl-N4-(2-oxo-2,3-dihydro-1,3-benzoxazol-5-yl)-2,4-pyrimidinediamine] as the compound, how does the IC50 read?
**A.** < 0.5 µM

**Q.** For `Cc1cnc(Nc2cc(F)cc(OC(C)(C)C(N)=O)c2)nc1Nc1ccc2oc(=O)[nH]c2c1` [Compound I-402, N2-[3-(1-aminocarbonyl-1-methyl)ethoxy-5-fluoro]phenyl-5-methyl-N4-(2-oxo-2,3-dihydro-1,3-benzoxazol-5-yl)-2,4-pyrimidinediamine], which IC50 is on record?
**A.** < 0.5 µM

**Q.** How did the IC50 turn out when `Cc1cnc(Nc2ccc(F)c(C#N)c2)nc1Nc1ccc2oc(=O)[nH]c2c1` [Compound I-294, N2-(3-cyano-4-fluoro)phenyl-5-methyl-N4-(2-oxo-2,3-dihydro-1,3-benzoxazol-5-yl)-2,4-pyrimidinediamine] was run?
**A.** < 0.5 µM

**Q.** `Cc1cnc(Nc2ccc(S(N)(=O)=O)cc2)nc1Nc1ccc2c(c1)n(C)c(=O)n2C` [Compound I-35, N4-(1,3-dimethylbenzimidazolin-2-on-5-yl)-N2-((4-aminosulfonyl)phenyl)-5-methylpyrimidine-2,4-diamine] was tested. Which IC50 did it give?
**A.** > 10 µM

**Q.** Which IC50 does the source give for `COc1cc(Nc2ncc(C)c(Nc3ccc4oc(=O)[nH]c4c3)n2)cc(C(F)(F)F)c1OC` [Compound I-485, N2-(3,4-dimethoxy-5-trifluoromethyl)phenyl-5-methyl-N4-(2-oxo-2,3-dihydro-1,3-benzoxazol-5-yl)-2,4-pyrimidinediamine] here?
**A.** < 0.5 µM

**Q.** With `COc1cc(Nc2ncc(C)c(Nc3ccc4oc(=O)[nH]c4c3)n2)cc(OC)c1` [Compound I-280, N2-(3,5-dimethoxy)phenyl-5-methyl-N4-(2-oxo-2,3-dihydro-1,3-benzoxazol-5-yl)-2,4-pyrimidinediamine] as the compound, how does the IC50 read?
**A.** < 0.5 µM

**Q.** For `Cc1cnc(Nc2cccc(NS(C)(=O)=O)c2)nc1Nc1ccc2oc(=O)n(C)c2c1` [Compound I-71, N2-((3-methylsulfonylamino)phenyl)-N4-(3-methyl-2-oxo-2,3-dihydrobenzo[d]oxazol-5-yl)-5-methylpyrimidine-2,4-diamine], which IC50 is on record?
**A.** < 0.5 µM

**Q.** `Cc1cnc(Nc2cccc(S(N)(=O)=O)c2)nc1Nc1ccc2c(c1)n(C)c(=O)n2C` [Compound I-34, N4-(1,3-dimethylbenzimidazolin-2-on-5-yl)-N2-((3-aminosulfonyl)phenyl)-5-methylpyrimidine-2,4-diamine] was tested. Which IC50 did it give?
**A.** < 0.5 µM

**Q.** For `Cc1cnc(Nc2ccc(OCCCO)nc2)nc1Nc1ccc2oc(=O)[nH]c2c1` [II-148, N2-[2-(3-hydroxy)propoxypyridin-5-yl]-5-methyl-N4-(2-oxo-2,3-dihydro-1,3-benzoxazol-5-yl)-2,4-pyrimidinediamine], which IC50 is on record?
**A.** 0.5 to 5 µM

**Q.** `Cc1cnc(Nc2ccc(N3CCN4CCCCC4C3)nc2)nc1Nc1ccc2oc(=O)[nH]c2c1` (centres unmarked) [II-128, N2-[2-(1,4-diazabicylco[4.4.0]decan-4-yl)pyridin-5-yl]-5-methyl-N4-(2-oxo-2,3-dihydro-1,3-benzoxazol-5-yl)-2,4-pyrimidinediamine] was tested. Which IC50 did it give?
**A.** < 0.5 µM

**Q.** Which IC50 does the source give for `Cc1cnc(Nc2cc(Cl)cc(OC(F)F)c2)nc1Nc1ccc2oc(=O)[nH]c2c1` [Compound I-495, N2-(3-chloro-5-difluoromethoxy)phenyl-5-methyl-N4-(2-oxo-2,3-dihydro-1,3-benzoxazol-5-yl)-2,4-pyrimidinediamine] here?
**A.** < 0.5 µM

**Q.** For `CS(=O)(=O)Nc1cccc(Nc2ncc(F)c(Nc3ccc4oc(=O)[nH]c4c3)n2)c1` [Compound I-56], which IC50 is on record?
**A.** < 0.5 µM

**Q.** For `Cc1cnc(Nc2ccc(F)c(NS(C)(=O)=O)c2)nc1Nc1ccc2c(c1)oc(=O)n2C` [Compound I-89, N2-((4-fluoro-3-methylsulfonylamino)phenyl)-N4-(3-methyl-2-oxo-2,3-dihydrobenzo[d]oxazol-6-yl)-5-methylpyrimidine-2,4-diamine], which IC50 is on record?
**A.** < 0.5 µM

**Q.** With `Cc1cnc(Nc2ccc(OC(C)(C)C#N)cc2)nc1Nc1ccc2oc(=O)[nH]c2c1` [Compound I-334, N2-[4-(1-cyano-1-methyl)ethoxy]phenyl-5-methyl-N4-(2-oxo-2,3-dihydro-1,3-benzoxazol-5-yl)-2,4-pyrimidinediamine] as the compound, how does the IC50 read?
**A.** < 0.5 µM

**Q.** How did the IC50 turn out when `COc1cc(Nc2ncc(C)c(Nc3ccc4oc(=O)[nH]c4c3)n2)ccc1C(F)(F)F` [Compound I-354, N2-(3-methoxy-4-trifluoromethyl)phenyl-5-methyl-N4-(2-oxo-2,3-dihydro-1,3-benzoxazol-5-yl)-2,4-pyrimidinediamine] was run?
**A.** < 0.5 µM

**Q.** With `NS(=O)(=O)c1ccc(Nc2ncc(F)c(Nc3ccc4oc(=O)[nH]c4c3)n2)cc1` [Compound I-19] as the compound, how does the IC50 read?
**A.** < 0.5 µM

**Q.** Which IC50 does the source give for `Cc1cnc(Nc2ccc(OC(C)(C)C(N)=O)nc2)nc1Nc1ccc2oc(=O)[nH]c2c1` [II-146, N2-[2-(1-aminocarbonyl-1-methyl)ethoxypyridin-5-yl]-5-methyl-N4-(2-oxo-2,3-dihydro-1,3-benzoxazol-5-yl)-2,4-pyrimidinediamine] here?
**A.** < 0.5 µM
